Laboratory results published in US8912120B2, “Herbicidal compositions comprising 4-amino-3-chloro-5-fluoro-6-(4-chloro-2-fluoro-3-methoxyphenyl) pyridine-2-carboxylic acid or a derivative thereof and synthetic auxin herbicides” (Dow AgroSciences, LLC., priority 2012, dated 2014).
Structures can show the parent of a compound that is named as a salt. Where two headings read alike, the source gives them in different places.

How the values were obtained:
SCPMA = assay: Example II: in-water applied herbicidal mixtures, transplanted paddy rice, SCPMA; assay type: in vivo; conditions: for Visual Weed Control (%) Obs: 22 DAA
Description: (§1) The prepared mud was dispensed in 365 mL aliquots into 16-ounce (oz.) non-perforated plastic pots with a surface area of 86.59 square centimeters (cm^2) leaving a headspace of 3 centimeters (cm) in each pot Mud was allowed to dry overnight prior to planting or transplanting. Rice seeds were planted in Sun Gro MetroMix® 306 planting mixture, which typically has a pH of 6.0 to 6.8 and an organic matter content of about 30 percent, in plastic plug trays. Seedlings at the second or third leaf stage of growth were transplanted into 840 mL of mud contained in 32-oz. non-perforated plastic pots with a surface area of 86.59 cm^2 4 days prior to herbicide application. […] Nutrients were added as Osmocote® (19:6:12, N:P:K^+ minor nutrients) at 2 g per 16-oz. pot and 4 g per 32-oz. pot.
(§2) Applications were made by injecting with a pipetter appropriate amounts of the application solutions, individually and sequentially, into the aqueous layer of the paddy. Control plants were treated in the same manner with the solvent blank. Applications were made so that all treated plant material received the same concentrations of acetone and crop oil concentrate.

CYPRO = assay: Example II: in-water applied herbicidal mixtures, weed control in transplanted paddy rice (greenhouse), CYPRO; assay type: in vivo, Cyperus rotundus (purple nutsedge); conditions: for Visual Weed Control (%) - 20 DAA CYPRO Obs / Visual Weed Control (%) - 22 DAA CYPRO Obs: in-water application; for Visual Weed Control (%) Obs: 22 DAA
Description: as §1, §2

ECHOR = assay: Example II: in-water applied herbicidal mixtures, transplanted paddy rice, ECHOR; assay type: in vivo, Echinochloa oryzoides (early watergrass); conditions: for Visual Weed Control (%) - 20 DAA ECHOR Obs / Visual Weed Control (%) - 22 DAA ECHOR Obs: in-water application; for pest or weed control at 70 g/ha: 70 gae/ha
Description: as §1, §2

CASOB = assay: Example V: postemergence herbicidal activity of mixtures in forage crops (greenhouse), CASOB; assay type: in vivo, Cassia obtusifolia (sicklepod); conditions: alone, 50 gae/ha, foliar, approximately 21 days
Description: (§3) Seeds or root cuttings of the desired test plant species were planted in Sun Gro MetroMix® 306 planting mixture, which typically has a pH of 6.0 to 6.8 and an organic matter content of about 30 percent, in plastic pots with a surface area of 126.6 square centimeters (cm^2). […] The plants were grown for 14-60 days in a greenhouse with an approximate 14 hour photoperiod which was maintained at approximately 28° C. during the day and 24° C. during the night.
(§4) Spray solutions of the second herbicide or experimental compound mixtures were prepared by adding the stock solutions to the appropriate amount of dilution solution to form 12 mL spray solution with active ingredients in two-way combinations.

BRSNN = assay: Example IV: postemergence foliar-applied herbicidal mixtures, cereal crops, BRSNN; assay type: in vivo, Brassica napus (volunteer canola); conditions: alone, foliar, 20-22 days
Description: as §3, with “Seeds” for “Seeds or root cuttings”, “MetroMix” for “MetroMix®”, “103.2” for “126.6”, “7-36” for “14-60”, “about 18°” for “approximately 28°”, “17°” for “24°”
(§5) Spray solutions of the second cereal herbicide and experimental compound mixtures were prepared by adding the stock solutions to the appropriate amount of dilution solution to form 12 mL spray solution with active ingredients in two- and three-way combinations.

ECHCG [1] = assay: Example II: in-water applied herbicidal mixtures, transplanted paddy rice, ECHCG; assay type: in vivo, Echinochloa crus-galli (barnyardgrass); conditions: for Visual Weed Control (%) - 22 DAA ECHCG Obs: in-water application
Description: as §1, §2

LEFCH = assay: Example II: in-water applied herbicidal mixtures, transplanted paddy rice, LEFCH; assay type: in vivo, Leptochloa chinensis (Chinese sprangletop); conditions: 25 DAA
Description: as §1, §2

SCPJU = assay: Example II: in-water applied herbicidal mixtures, transplanted paddy rice, SCPJU; assay type: in vivo, Schoenoplectus juncoides (Japanese bulrush); conditions: 25 DAA
Description: as §1, §2

CENMA = assay: Example V: postemergence herbicidal activity of mixtures in forage crops, CENMA; assay type: in vivo, Centaurea maculosa (spotted knapweed); conditions: alone, foliar, approximately 21 days
Description: as §3, §4

SONAR = assay: Example V: postemergence herbicidal activity of mixtures in forage crops, SONAR; assay type: in vivo, Sonchus arvensis (field sowthistle); conditions: alone, foliar, approximately 21 days
Description: as §3, §4

CIRAR = assay: Example V: postemergence herbicidal activity of mixtures in forage crops, CIRAR; assay type: in vivo, Cirsium arvense (Canada thistle); conditions: alone, 70 gae/ha, foliar, approximately 21 days
Description: as §3, §4

ECHCG [2] = assay: Example I: postemergence foliar-applied herbicidal mixtures, direct seeded rice, ECHCG
DIGSA = assay: Example I: postemergence foliar-applied herbicidal mixtures, direct seeded rice, DIGSA
Description: (§6) The soil matrix was contained in plastic pots with a volume of 1 quart and a surface area of 83.6 square centimeters (cm^2). […] The plants were grown for 8-22 days in a greenhouse with an approximate 14 h photoperiod which was maintained at about 29° C. during the day and 26° C. during the night. Nutrients (Peters Excel® 15-5-15 5-Ca 2-Mg and iron chelate) were applied in the irrigation solution as needed and water was added on a regular basis. Supplemental lighting was provided with overhead metal halide 1000-Watt lamps as necessary. The plants were employed for testing when they reached the first through fourth true leaf stage.
(§7) Treatments consisted of the acid or esters of 4-amino-3-chloro-5-fluoro-6-(4-chloro-2-fluoro-3-methoxy-phenyl)pyridine-2-carboxylic acid (Compound A), each formulated as an SC (suspension concentrate), and various herbicidal components alone and in combination. Forms of compound A were applied on an acid equivalent basis.
(§8) For treatments comprised of formulated compounds, measured amounts of compounds were placed individually in 25 mL glass vials and diluted in a volume of 1.25% (v/v) Agri-Dex® crop oil concentrated to obtain 12× stock solutions. […] Application solutions were prepared by adding an appropriate amount of each stock solution (e.g., 1 mL) and diluted to the appropriate final concentrations with the addition of 10 mL of an aqueous mixture of 1.25% (v/v) crop oil concentrate so that the final spray solutions contained 1.25+/−0.05% (v/v) crop oil concentrate.
(§9) All stock solutions and applications solutions were visually inspected for compound compatibility prior to application. Spray solutions were applied to the plant material with an overhead Mandel track sprayer equipped with a 8002E nozzles calibrated to deliver 187 L/ha over an application area of 0.503 m^2 at a spray height of 18 to 20 inches (46 to 50 cm) above average plant canopy height. Control plants were sprayed in the same manner with the solvent blank.
(§10) The treated plants and control plants were placed in a greenhouse as described above and watered by sub-irrigation to prevent wash-off of the test compounds. After approximately 3 weeks, the condition of the test plants as compared with that of the untreated plants was determined visually and scored on a scale of 0 to 100 percent where 0 corresponds to no injury or growth inhibition and 100 corresponds to complete kill.
(§11) Colby's equation was used to determine the herbicidal effects expected from the mixtures (Colby, S. R. 1967. Calculation of the synergistic and antagonistic response of herbicide combinations. Weeds 15:20-22).
(§12) The following equation was used to calculate the expected activity of mixtures containing two active ingredients, A and B: Expected=A+B−(A×B/100)
(§13) A=observed efficacy of active ingredient A at the same concentration as used in the mixture.
(§14) B=observed efficacy of active ingredient B at the same concentration as used in the mixture.

ECHCO = assay: Example I: postemergence foliar-applied herbicidal mixtures, direct seeded rice, ECHCO
Description: as §6, §7, §8, §9, §10, §11, §12, §13, §14

AMARE = assay: Example IV: postemergence foliar-applied herbicidal mixtures, weed control in cereal crops in the greenhouse, AMARE; assay type: in vivo, Amaranthus retroflexus (redroot pigweed); conditions: alone, 20-22 days
Description: as §3, with “Seeds” for “Seeds or root cuttings”, “MetroMix” for “MetroMix®”, “103.2” for “126.6”, “7-36” for “14-60”, “about 18°” for “approximately 28°”, “17°” for “24°”
as §5

POLCO = assay: Example IV: postemergence foliar-applied herbicidal mixtures, cereal crops, POLCO; assay type: in vivo, Polygonum convolvulus (wild buckwheat); conditions: alone, 35 gai/ha, foliar, 20-22 days
Description: as §3, with “Seeds” for “Seeds or root cuttings”, “MetroMix” for “MetroMix®”, “103.2” for “126.6”, “7-36” for “14-60”, “about 18°” for “approximately 28°”, “17°” for “24°”
as §5

O=C(O)COc1ccc(Cl)cc1Cl [2,4-D Choline Salt, 2-hydroxy-N,N,N-trimethylethanaminium 2-(2,4-dichlorophenoxy)acetate, reference compound]
Visual Weed Control (%) - 20 DAA SCPMA Obs (SCPMA; 240 gae/ha, in-water application): 0% | Visual Weed Control (%) - 20 DAA CYPRO Obs (CYPRO; 240 gae/ha): 30% | Visual Weed Control (%) - 20 DAA CYPRO Obs (CYPRO; 480 gae/ha): 30% | Visual Weed Control (%) - 20 DAA ECHOR Obs (ECHOR; 240 gae/ha): 0% | Visual Weed Control (%) - 20 DAA ECHOR Obs (ECHOR; 480 gae/ha): 20% | CASOB Obs (observed value) (CASOB): 3%

Cc1cc(Cl)ccc1O[C@H](C)C(=O)O [Mecoprop, (2R)-2-(4-chloro-2-methylphenoxy)propanoic acid]
BRSNN Ob (observed value) (BRSNN; 200 gai/ha): 70%

O=C(O)COc1nc(Cl)c(Cl)cc1Cl [Triclopyr TEA Salt, 2-[(3,5,6-trichloro-2-pyridinyl)oxy]acetic acid compound with N,N-diethylethanamine, reference compound]
Visual Weed Control (%) Obs (ECHCG [1]; 25 DAA, 70 gae/ha): 0% | Visual Weed Control (%) Obs (ECHCG [1]; 25 DAA, 140 gae/ha): 0% | Visual Weed Control (%) Obs (LEFCH; 70 gae/ha): 0% | Visual Weed Control (%) Obs (LEFCH; 140 gae/ha): 0% | Visual Weed Control (%) Obs (SCPJU; 70 gae/ha): 20% | Visual Weed Control (%) Obs (SCPJU; 140 gae/ha): 30% | pest or weed control at 280 g/ha (ECHOR; Echinochloa oryzoides, 456 h, 19 DAA, 280 gae/ha, read-out: Visual Weed Control (%) Obs): 35% | pest or weed control at 70 g/ha (ECHOR; Echinochloa oryzoides, 600 h, 25 DAA, read-out: Visual Weed Control (%) Obs): 0% | pest or weed control at 140 g/ha (ECHOR; Echinochloa oryzoides, 600 h, 25 DAA, 140 gae/ha, read-out: Visual Weed Control (%) Obs): 0%

CCCCOCCOC(=O)COc1nc(Cl)c(Cl)cc1Cl [Triclopyr Butotyl Ester, 2-butoxyethyl 2-[(3,5,6-trichloro-2-pyridinyl)oxy]acetate, reference compound]
CENMA Obs (observed value) (CENMA; 35 gae/ha): 30% | CENMA Obs (observed value) (CENMA; 70 gae/ha): 45% | SONAR Obs (observed value) (SONAR; 35 gae/ha): 60% | SONAR Obs (observed value) (SONAR; 70 gae/ha): 60% | CIRAR Obs (observed value) (CIRAR): 40% | Visual Weed Control (%) - 23 DAA ECHCG Obs (ECHCG [2]; 35 gae/ha): 0% | Visual Weed Control (%) - 23 DAA ECHCG Obs (ECHCG [2]; 70 gae/ha): 0% | Visual Weed Control (%) - 23 DAA ECHCG Obs (ECHCG [2]; 140 gae/ha): 15% | Visual Weed Control (%) Obs (SCPMA; 70 gae/ha): 50% | Visual Weed Control (%) Obs (SCPMA; 140 gae/ha): 60% | Visual Weed Control (%) Obs (ECHCG [1]; 22 DAA, 70 gae/ha): 0% | Visual Weed Control (%) Obs (ECHCG [1]; 22 DAA, 140 gae/ha): 0% | Visual Weed Control (%) Obs (CYPRO; 70 gae/ha): 0% | Visual Weed Control (%) Obs (CYPRO; 140 gae/ha): 40% | Visual Weed Control (%) - 23 DAA DIGSA Obs (DIGSA; 35 gae/ha): 0% | Visual Weed Control (%) - 23 DAA DIGSA Obs (DIGSA; 70 gae/ha): 0% | Visual Weed Control (%) - 23 DAA DIGSA Obs (DIGSA; 140 gae/ha): 0% | Visual Weed Control (%) - 23 DAA ECHCO Obs (ECHCO; 70 gae/ha): 0% | Visual Weed Control (%) - 23 DAA ECHCO Obs (ECHCO; 140 gae/ha): 0% | pest or weed control at 70 g/ha (ECHOR; Echinochloa oryzoides, 528 h, 22 DAA, read-out: Visual Weed Control (%) Obs): 0% | pest or weed control at 140 g/ha (ECHOR; Echinochloa oryzoides, 528 h, 22 DAA, 140 gae/ha, read-out: Visual Weed Control (%) Obs): 0% | CASOB Obs (observed value) (CASOB): 18%

O=C(O)c1nc(Cl)ccc1Cl [Clopyralid, 3,6-dichloro-2-pyridinecarboxylic acid]
AMARE Ob (observed value) (AMARE; 50 gai/ha): 17%

COc1c(Cl)ccc(Cl)c1C(=O)O [Dicamba, 3,6-dichloro-2-methoxybenzoic acid]
POLCO Ob (observed value) (POLCO): 13% | AMARE Ob (observed value) (AMARE; 35 gai/ha): 53% | BRSNN Ob (observed value) (BRSNN; 35 gai/ha): 8%

CCCCC(CC)COC(=O)COc1ccc(Cl)cc1Cl (stereo not drawn) [2,4-D EHE, 2-ethylhexyl 2-(2,4-dichlorophenoxy)acetate, reference compound]
Visual Weed Control (%) - 22 DAA ECHCG Obs (ECHCG [1]; 140 gae/ha): 0% | Visual Weed Control (%) - 22 DAA ECHCG Obs (ECHCG [1]; 280 gae/ha): 0% | Visual Weed Control (%) - 22 DAA CYPRO Obs (CYPRO; 140 gae/ha): 0% | Visual Weed Control (%) - 22 DAA CYPRO Obs (CYPRO; 280 gae/ha): 0% | Visual Weed Control (%) - 22 DAA ECHOR Obs (ECHOR; 140 gae/ha): 0% | Visual Weed Control (%) - 22 DAA ECHOR Obs (ECHOR; 280 gae/ha): 0%
